{"source": "patent US10660914B2", "about": "“Stuffy nose deblocking composition having antiviral activity” (MARINOMED BIOTECH AG, priority 2015, dated 2020)", "key": {"[1]": {"system": "human rhinovirus 1a (HRV1a)", "assay": "Inhibition of human rhinovirus 1a infection of Hela cells (cell viability, IC50)", "protocol": "(§1) Hela cells were seeded into 96 well plates with a cell density of 5*10^3 cells per well and cultivated for 24 hours in a standard DMEM tissue culture medium containing 4.5 g/I glucose. Virus suspensions containing carrageenan polymer at varying concentrations of between 0 and 150 μg/ml, in combination with NaCl and sorbitol (as indicated in the respective legends to each table) in a dilution series, were incubated for 30 minutes. Cells were infected with these virus suspensions containing the test substances and 7*10^3 (HRV1a) or 5*10^4 (HRV8) infectious units per well. 30 minutes after infection the virus inoculum was removed and substituted by virus-free infection medium containing carrageenan polymer, NaCl salt and sorbitol in the concentrations to be tested. The cells were incubated for 2 to 3 days at 33° C. […] An incubation of cells with the same dilution series of test substances (i.e. carragenan component plus osmolalitiy adjusting agents) in the absence of viral infection was performed to monitor for a potential toxicity of the treatment. Calculation of IC50 values was performed with standard fitting software ExcelFit."}, "[2]": {"system": "human coronavirus OC43", "assay": "Hemagglutination inhibition assay, minimal inhibitory concentration for prevention of hCoV OC43 attachment to chicken RBCs", "type": "cell-based", "description": "On a 96-well plate, two hemagglutination units of hCoV OC43/well were incubated with a ½-log dilution series of test or control samples for 10 min at room temperature. Final assay concentrations were 0.002 to 3 μg/ml iota-carrageenan in aqueous 0.5, 0.9, 2.0, 2.3 or 2.6% NaCl solution in the presence or absence of 7% sorbitol. Then, a suspension of chicken RBCs (1% v/v in PBS) was added to each well to allow hemagglutination of red blood cells (RBCs) by the virus for 1.5 hrs at 4° C. At the time point of assay evaluation, control RBCs in the absence of carrageenan were fully agglutinated, whereas hemagglutination was inhibited in the presence of carrageenan up to a sample-specific concentration, the minimal inhibitory concentration."}, "[3]": {"assay": "Osmolality of carrageenan preparations", "type": "physicochemical"}, "[4]": {"system": "human rhinovirus 8 (HRV8)", "assay": "Inhibition of human rhinovirus 8 infection of Hela cells (cell viability, IC50)", "protocol": "as §1"}, "[5]": {"conditions": "2% NaCl (670 mOsm/kg) compared to 0.5% NaCl (174 mOsm/kg)"}, "[6]": {"conditions": "2.3% NaCl (776 mOsm/kg) compared to 0.5% NaCl (174 mOsm/kg)"}, "[7]": {"conditions": "2.6% NaCl (872 mOsm/kg) compared to 0.5% NaCl (174 mOsm/kg)"}, "[8]": {"conditions": "0.9% NaCl (295 mOsm/kg) compared to 0.5% NaCl (174 mOsm/kg)"}}, "data": [{"substance": "iota-carrageenan [iota carrageenan]", "values": [{"measurement": "Increase of IC50 value, HRV1a inhibition", "setting": "[1]; 0.9% NaCl (295 mOsm/kg) compared to hypoosmolar 0.5% NaCl solution (174 mOsm/kg)", "result": "3.1-fold* ^"}, {"measurement": "Increase of IC50 value, HRV1a inhibition", "setting": "[1]; [5]", "result": "14.5-fold*"}, {"measurement": "Increase of IC50 value, HRV1a inhibition", "setting": "[1]; [6]", "result": "22.3-fold*"}, {"measurement": "Increase of IC50 value, HRV1a inhibition", "setting": "[1]; [7]", "result": "33.7-fold*"}, {"measurement": "reduction in inhibitory efficacy on human rhinovirus replication", "setting": "[1]; isoosmolar (0.9%) and hyperosmolar (2%, 2.3%, 2.6% NaCl) compared with hypoosmolar solution (0.5% NaCl), summary of Table 1", "result": "≤ 34", "unit": "fold"}, {"measurement": "Increase of the minimal inhibitory concentration, hCV OC43", "setting": "[2]; 0.5% NaCl + 7% sorbitol (597 mOsm/kg) compared to 0.5% NaCl (174 mOsm/kg)", "result": "1-fold (ns)"}, {"measurement": "Increase of the minimal inhibitory concentration, hCV OC43", "setting": "[2]; [8]", "result": "1-fold (ns)"}, {"measurement": "Increase of the minimal inhibitory concentration, hCV OC43", "setting": "[2]; 0.9% NaCl + 7% sorbitol (733 mOsm/kg) compared to 0.5% NaCl (174 mOsm/kg)", "result": "1-fold (ns)"}, {"measurement": "Increase of the minimal inhibitory concentration, hCV OC43", "setting": "[2]; [5]", "result": "10-fold*"}, {"measurement": "Increase of the minimal inhibitory concentration, hCV OC43", "setting": "[2]; 2.3% NaCl (748 mOsm/kg) compared to 0.5% NaCl (174 mOsm/kg)", "result": "10-fold*"}, {"measurement": "Increase of the minimal inhibitory concentration, hCV OC43", "setting": "[2]; 2.3 NaCl (776 mOsm/kg) compared to 0.5% NaCl (174 mOsm/kg)", "result": "10-fold*"}, {"measurement": "Increase of the minimal inhibitory concentration, hCV OC43", "setting": "[2]; [7]", "result": "10-fold*"}, {"measurement": "osmolality", "setting": "[3]; Table 1, solution with 0.9% NaCl", "result": 295, "unit": "mOsm/kg"}, {"measurement": "osmolality", "setting": "[3]; Table 1, solution with 2% NaCl", "result": 670, "unit": "mOsm/kg"}, {"measurement": "osmolality", "setting": "[3]; Table 1, solution with 2.3% NaCl", "result": 776, "unit": "mOsm/kg"}, {"measurement": "osmolality", "setting": "[3]; Table 1, solution with 2.6% NaCl", "result": 872, "unit": "mOsm/kg"}, {"measurement": "osmolality", "setting": "[3]; Table 4, solution with 0.9% NaCl", "result": 295, "unit": "mOsm/kg"}, {"measurement": "osmolality", "setting": "[3]; Table 4, solution with 2% NaCl", "result": 670, "unit": "mOsm/kg"}, {"measurement": "osmolality", "setting": "[3]; Table 4, solution with 2.3 NaCl", "result": 776, "unit": "mOsm/kg"}, {"measurement": "osmolality", "setting": "[3]; Table 4, solution with 2.6% NaCl", "result": 872, "unit": "mOsm/kg"}, {"measurement": "osmolality", "setting": "[3]; Table 5, solution with 0.5% NaCl + 7% sorbitol", "result": 597, "unit": "mOsm/kg"}, {"measurement": "osmolality", "setting": "[3]; Table 5, solution with 0.9% NaCl + 7% sorbitol", "result": 733, "unit": "mOsm/kg"}, {"measurement": "osmolality", "setting": "[3]; Table 5, solution with 2.3% NaCl", "result": 748, "unit": "mOsm/kg"}, {"measurement": "Increase of IC50 value, HRV8 inhibition", "setting": "[4]; [8]", "result": "1.8-fold (ns)"}, {"measurement": "Increase of IC50 value, HRV8 inhibition", "setting": "[4]; [5]", "result": "3.6-fold*"}, {"measurement": "Increase of IC50 value, HRV8 inhibition", "setting": "[4]; [6]", "result": "6.9-fold*"}, {"measurement": "Increase of IC50 value, HRV8 inhibition", "setting": "[4]; [7]", "result": "7.5-fold*"}]}]}
